Reference: patent US20060148710A1, “Oligopeptides, composition and use thereof as elicitors of the natural defences of plants” (DE Sangosse SA, priority 2003, published 2006)
“And” between values parts separate entries of the source, which are not always exact repeats. Equal values may be shown once.

Columns and labels:
Zucchini plants = assay: Peroxydasic activity in treated zucchini plants; type: in vivo; conditions: for Peroxydasic activity / Percent of peroxydasic activity relative to the product: zucchini plants aged 3 weeks, product 3.5 mg/L; for Percent of peroxydasic activity relative to the product: product 6 = 100%; for elicitor activity: zucchini plants, comparison in words
Source text: (§1) a) Measurement of the Peroxydasic Acttivity (Enzyme Endogenous to Plants)
(§2) Given the primordial role of the peroxydases in the resistance of plants, we have used the peroxydasic activity as a marker of the resistance following treatments by elicitors.
(§3) So as to measure the peroxydasic activities, leaves are crushed in a citrate-monohydrogeno-phosphate-disodium buffer. The extract is then placed in gaiacol and oxygenated water. A rapid reaction takes place: the gaiacol is transformed into tetragaiacol. The appearance of tetragaiacol in the medium permits us to calculate the peroxydasic activity.
(§4) Measurements are carried out in this same buffer by using the gaiacol as substrate. The results are expressed in ΔDO/mn/g of fresh material.
(§5) All the plants tested are young plants obtained from seed or by slipping. Pulverization is effected of the formulations obtained from oligopeptides. These formulations contain various wetting or penetrating agents capable of carrying the active material (oligopeptides) to the cells.
Zucchini plants aged 3 weeks have been treated with oligopeptides.

tobacco plants = conditions: 10 mM; cited from earlier work
Grape plants [1] = assay: Peroxydasic activity in treated grape plants; type: in vivo; conditions: grape plants aged 3 weeks
Source text: as §1, §2, §3, §4, §5
(§6) Grape plants aged 3 weeks have been treated with oligopeptides. The results obtained are assembled in Tables II, III (Sheet 1/2).

Grape plants [2] = assay: Chitinasic activity in treated grape plants; type: in vivo; conditions: grape plants aged 3 weeks
Procedure: b) Measurement of the Chitinasic Activity
So as to verify that the mechanisms of resistance are triggered, we have also measured an enzymatic activity appearing in the situations of resistance: the chitinasic activity (enzyme synthesis upon attack of the parasites, which degrades chitin, constituting the walls of the phytopathogenic mushrooms).
Colormetric reaction used: there is used an acetate buffer:
Solution of chitin+enzymatic extract+acetate buffer qsp 0.5 ml (blue at 2 mg/ml) crude 50 mM-(pH5) (100 microliters)
incubation for 30 minutes at 37° C., and under continuous agitation.
the reaction is stopped by addition of a solution of HCL 1N
colormetric or spectrophotometric measurement at 550 nm
The chitinasic activity is expressed as ΔDO/mn/g of fresh material.
as §5, §6

## CC(C)(N)C(=O)O [Aib, α-aminoisobutyric acid, reference compound]
Zucchini plants
  Peroxydasic activity: 53.1 ΔDO/min/aMF
  Percent of peroxydasic activity relative to the product: 15.26%

## C[C@H](N)C(=O)O [Alanine, reference compound]
Zucchini plants
  Peroxydasic activity: 65.78 ΔDO/min/aMF
  Percent of peroxydasic activity relative to the product: 18.9%

## CC(N)CO (centres unmarked) [Alininol, Alaninol, reference compound]
Zucchini plants
  Peroxydasic activity: 69.46 ΔDO/min/aMF
  Percent of peroxydasic activity relative to the product: 19.96%
  elicitor activity: most active of the residues tested

## NCCCC(=O)O [GABA, γ-aminobutyric acid, reference compound]
Zucchini plants
  Peroxydasic activity: 49.1 ΔDO/min/aMF
  Percent of peroxydasic activity relative to the product: 14.11%
Tobacco plants
  capacity to trigger the ARS: totally inactive

## CCC(N)C(=O)O (stereo not drawn) [α-aminobutyric acid]
Tobacco plants
  capacity to trigger the ARS: less active

## CC(N)CC(=O)O (stereo not drawn) [β-aminobutyric acid]
Tobacco plants
  capacity to trigger the ARS: active

## H-Ala1-Ala-ol [Product 7]
Zucchini plants
  Peroxydasic activity: 99.16 ΔDO/min/aMF
  Percent of peroxydasic activity relative to the product: 28.49%

## H-Ala2-Ala-ol [Product 8]
Zucchini plants
  Peroxydasic activity: 94.6 ΔDO/min/aMF
  Percent of peroxydasic activity relative to the product: 27.18%

## H-Ala3-Ala-ol [Product 9]
Zucchini plants
  Peroxydasic activity: 112 ΔDO/min/aMF
  Percent of peroxydasic activity relative to the product: 32.18%

## H-Ala4-Ala-ol [Product 10]
Zucchini plants
  Peroxydasic activity: 194 ΔDO/min/aMF
  Percent of peroxydasic activity relative to the product: 55.74%

## H-Ala5-Ala-ol [Product 11]
Zucchini plants
  Peroxydasic activity: 102 ΔDO/min/aMF
  Percent of peroxydasic activity relative to the product: 29.31%

## H-Ala6-Ala-OH [Product 12]
Zucchini plants
  Peroxydasic activity: 175 ΔDO/min/aMF
  Percent of peroxydasic activity relative to the product: 50% and 50.28%

## H-Alan-Ala-OH [Product 13]
Grape plants [1]
  Percent of peroxydasic activity relative to the most active product: 59.49%
  Peroxydasic activity: 136.6 ΔDO/mn/g of fresh material
Grape plants [2]
  Chitinasic activity: 65.3 ΔDO/mn/g of fresh material
  Percent of chitinasic activity relative to the most active product: 100%

## H-Alan-Ala-ol [Product 6]
Zucchini plants
  Peroxydasic activity: 348 ΔDO/min/aMF
  Percent of peroxydasic activity relative to the product: 100%
  elicitor activity: strongest elicitor activity
Grape plants [1]
  Percent of peroxydasic activity relative to the most active product: 81.66%
  Peroxydasic activity: 187.5 ΔDO/mn/g of fresh material
Grape plants [2]
  Chitinasic activity: 45.4 ΔDO/mn/g of fresh material
  Percent of chitinasic activity relative to the most active product: 80.94%
